This note sets out measurements from patent publication US8865229B2, “Marrubiin and composition for reducing snoring, package and method” (Puranox Medical B.V., priority 2005, dated 2014).

For the experiment, the system named is snoring of a treated person. Kind of experiment: anti-snoring effect when applied in the pharynx via the mouth. The format is in vivo. The following applies: active component; test details not given. The text has this:
The invention provides for this purpose a composition for reducing snoring, comprising at least an active quantity of at least one active component with astringent properties and a physiologically acceptable excipient. Such a composition is preferably applied in the pharynx. […] The composition according to the invention can be applied usefully not only in the domestic domain but also in professional situations where a plurality of people must necessarily sleep in the same space, such as in a dormitory, a hospital or military barracks. […] All formulations are based on water: the shown percentages by weight are thus supplemented to 100% with water. Composition A is a liquid composition which can be used for applying with a spray or as droplets. Composition B is a gel formulation. Composition C is a foam.

Molecules are shown by their SMILES.

Consider `C[C@@H]1C[C@H]2OC(=O)[C@@]3(C)CCC[C@@](C)([C@@H]23)[C@@]1(O)CCc1ccoc1` [Marrubiin, 6-(2-furan-3-yl-ethyl)-6-hydroxy-2a,5a,7-trimethyldekahydronafto[1,8-bc]furan-2-on], for which the “anti-snoring effect / effects on the level of snoring of a treated person” value is “particularly good anti-snoring effect”.
